The values below come from article PMC7179297, “Preclinical Antimalarial Combination Study of M5717, a Plasmodium falciparum Elongation Factor 2 Inhibitor, and Pyronaridine, a Hemozoin Formation Inhibitor” (Antimicrobial Agents and Chemotherapy, 2020).

Structures are written as SMILES.

This assay concerns P. falciparum NF54 strain. Kind of assay: [3H]hypoxanthine incorporation assay, individual drugs. To be noted: Plasmodium falciparum, 72 h. Format: cell-based. The protocol:
IC50 and drug interaction studies were performed as previously described ([27], [28]). […] Cultures were harvested onto glass fiber filters, washed, and the radioactivity was counted using a MicroBetaplate liquid scintillation counter and recorded as counts per minute (cpm) per well. Results are expressed as a percentage of the untreated controls (see the supplemental material for more details). page 2: 25 In vitro isobolograms 26 Compounds were tested against intraerythrocytic forms of P. falciparum derived from asynchronous stock cultures 27 of lab strain NF54 (Schiphol airport strain of unknown origin), as previously described.i,ii The culture medium was […] 29 mM HEPES, 25 mM NaHCO3 (pH 7.3), 0.36 mM hypoxanthine and 100 μg/mL neomycin. Human type A+ 30 erythrocytes served as host cells. […] 31 in humidified modular chambers. Testing of the individual drugs was carried out in 96-well microtiter plates. The 32 compounds were dissolved in DMSO (10 mg/mL), prediluted in hypoxanthine-free culture medium and titrated in […] After addition of an equal volume of parasite culture with a parasitemia of […] Parasite growth was measured by the incorporation of radiolabelled [3H]hypoxanthine (0.25 µCi in […] 37 assay duration) prior to the termination of the test. Cultures were harvested onto glass-fiber filters and washed with 38 distilled water. The radioactivity was counted using a MicroBetaplate liquid scintillation counter (Wallac, Zürich, 39 Switzerland) and the results recorded as counts per minute (cpm) per well at each drug concentration and expressed 40 as percentage of the untreated controls. Fifty percent inhibitory concentrations (IC50) were determined by linear 41 interpolation.v 42 43 For data interpretation, the IC50s of the drugs in combination were expressed as fractions of the IC50s of the drugs 44 alone. These fractions were called “Fractional Inhibitory Concentrations” (FIC) for drug A and for drug B, 45 respectively. 46 FIC Drug A = IC50 A (B) IC50 A […] 49 50 Formulation 51 Pyronaridine (tetraphosphate salt) and […] (succinate salt) were solubilized in a vehicle consisting of 70% […] 54 55 2

With `O=C1C(O)=C([C@H]2CC[C@H](c3ccc(Cl)cc3)CC2)C(=O)c2ccccc21` [atovaquone], the concentration giving a half-maximal response (EC50) came to 0.4 nM.

As to `[H]/N=C(\N/C(=N/[H])Nc1ccc(Cl)cc1)NC(C)C` [proguanil], the half-maximal effective concentration (EC50) was 5500 nM.
